Reference: article PMC10889360, “Therapeutic targeting Tudor domains in leukemia via CRISPR-Scan Assisted Drug Discovery” (Science Advances, 2024)
Structures can show the parent of a compound that is named as a salt. Where two headings read alike, the source gives them in different places. No end group written: not given here. Me3 = trimethyl (trimethyl-lysine)

T1: recombinant His6-tagged SGF29 tandem Tudor domain (SGF29-TTD), residues Met114 to Lys293 (human, UniProt Q96ES7 114-293)
T1 construct: SAGA-associated factor 29 (SGF29), human, tandem Tudor domain, residues Met114 to Lys293, UniProt Q96ES7; 22.9 kDa with the tag; Codon-optimised cDNA with synonymous changes only; No tag cleavage is described; the chain is detected by the nickel chelate AlphaScreen beads; The forward primer carries the end of a TEV site (ENLYFQS) from the vector before Met114; also called SGF29_Tudor 2; …
T1 sequence (looked up): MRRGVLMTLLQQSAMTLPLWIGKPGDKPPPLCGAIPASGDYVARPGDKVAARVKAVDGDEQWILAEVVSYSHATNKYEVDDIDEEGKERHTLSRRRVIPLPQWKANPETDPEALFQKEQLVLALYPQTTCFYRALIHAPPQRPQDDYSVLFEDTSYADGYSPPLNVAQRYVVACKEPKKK

B1: H3(1-18)K4me3-bio (biotinylated H3K4me3) peptide (peptide, UniProt P68431 2-19, looked up)
peptide: ARTK(Me3)QTARKSTGGKAPRK
modifications: also: biotin, position not given here
notes: histone H3, residues 1-18, trimethylated at lysine 4; source: synthetic peptide (Thermo Fisher Scientific)

How the values were obtained:
[1] = tested on: MV4-11; assay: cells; set-up: species or system MV4-11; U251; details: for viability at 10 µM: Homo sapiens, read-out: % viability; for % viability: 10 µM
Experimental: (§1) Compound information and source are listed in data S9. For Cpd_DC60, the initial small scale was obtained from the NCI Developmental Therapeutics Program (NCI/DTP) Open Chemicals Repository. Additional Cpd_DC60 was then custom synthesized by Ambinter (Orléans, France). MV4-11 cells were seeded at 20,000 cells per well, and U251 cells were seeded at 10,000 cells per well. Cells were cultured in 96-well plates at 100 μl per well and replated with fresh medium and compound every 3 days for up to 9 days. At each time point, 15 μl of the CellTiter-Glo 2.0 assay reagent (G9242, Promega) and 20 μl of resuspended cells were mixed in white flat-bottom 96-well plates (353296, Corning), and subsequently, the resultant luminescence was measured using an Infinite M1000 Pro plate reader (Tecan Trading AG, Switzerland). The relative CellTiter Glo signal was normalized to the control condition (DMSO) at each reading time point. Next, we examined the response of SGF29-dependent MV4-11 leukemia cells and the SGF29-independent U251 glioblastoma cells (see Fig. 1H) to these 190 candidate compounds (plus 15 reference compounds) using a CellTiter Glo screen. […] Compared to the pan-cancer inhibitors I-BET151 [inhibits the bromodomain of Bromodomain and Extra-Terminal motif (BET)] ([36]) and JQ1 (blocks BRD4 bromodomain) ([10]), we observed several known leukemia-targeting compounds (EPZ-5676, OICR-9429, A-485, and A-366) ([37]–[40]) within the 19 MV4-11 selective inhibitors (detailed in fig. S7A). On the basis of the selective killing against MV4-11 (Δ Score, i.e., differential CellTiter Glo % between MV4-11 and U251 on day 9), we then chose the top six ranked candidate compounds (Cpd_DC60, 201, 11, 157, 182, and 21) for further investigation (fig. S7B). […] Identification of SGF29 lead inhibitor by CRISPR-SADD workflow. (A) Schematic outline of the Sgf29 high-density CRISPR tiling scan in MLL-AF9-Cas9^+ cells. (B) Two-dimensional annotation of Sgf29 CRISPR-Scan. The blue line indicates the smoothened model of the CRISPR-Scan score derived from 147 sgRNAs (dots) targeting the coding exons of Sgf29. The median NCS scores of the positive control (red dotted line; defined as −1.0) and negative control (green dotted line; defined as 0.0) sgRNAs are highlighted. The blue dashed box indicates the SGF29-TTD domain. (C) Three-dimensional annotation Sgf29 CRISPR-Scan score relative to an x-ray crystal structural model of human SGF29-TTD (PDB ID: 3ME9). The CRISPR hypersensitive (red) aromatic cage of SGF29 Tudor_2 domain is highlighted. (D) Docking box (cube) defined by overlapping the PrankWeb predicted ligandable protein surface (surface contour marked by the dotted pink-line) with the CRISPR hypersensitive region of SGF29-TTD (red areas). (E) Heatmap showing the relative CellTiter Glo signal [% to dimethyl sulfoxide (DMSO) control] of MV4-11 and U251 cells incubated with 205 selected compounds (10 μM) for 3, 6, and 9 days. The effective killing was defined as less than 10% relative CellTiter Glo signal on day 9. Four clusters of compounds are identified, including the U251 selective (7 cpds), noneffective (157 cpds), general toxic (22 cpds), and MV4-11 selective (19 cpds) groups. (F and G) Western blot of (F) MOLM13 cells and (G) MV4-11 cells incubated with Cpd_DC60 (20 μM) for 48 hours. (H) Effect of Cpd_DC60 on the SGF29-TTD/H3K4me3 AlphaScreen signal. (I) Left: Docking simulation model of SGF29-TTD (colored by NCS) interacts with Cpd_DC60 (yellow). Right: Overlap of SGF29-TTD/H3K4me3 (cyan) cocrystal structure (PDB ID: 3ME9) with the predicted Cpd_DC60 (yellow) binding post on SGF29-TTD. The “aromatic cage” that consists of Y238, Y245, and F264 is indicated. a.a., amino acid. IC50, median inhibitory concentration.

[2] = tested on: U251 (U-251); assay: cells; set-up: species or system MV4-11; U251; details: for viability at 10 µM: Homo sapiens, read-out: % viability; for % viability: 10 µM
Experimental: as §1

[3] = molecular target: T1, recombinant His6-tagged SGF29 tandem …; assay: AlphaScreen or HTRF; AlphaScreen Histidine (Nickel Chelate) Detection Kit; 75 nM SGF29-TTD, 150 nM H3(1-18)K4me3-bio, 0.8% DMSO, acceptor/donor beads 20 ug/ml; 50 mM Hepes, 100 mM NaCl, 5 mM TCEP, pH 7.4; 25 C, 3 hours; signal blocked by the small molecule Cpd_DC60; details: both partners purified

| binding result [3] | Molecule | viability at 10 µM ([1]; MV4-11, 72 h) [%] | viability at 10 µM ([1]; MV4-11, 144 h) [%] | viability at 10 µM ([1]; MV4-11, 216 h) [%] | viability at 10 µM ([2]; U-251, 72 h) [%] | viability at 10 µM ([2]; U-251, 144 h) [%] | viability at 10 µM ([2]; U-251, 216 h) [%] | % viability ([1]; day 3, 72 h) [%] | % viability ([1]; day 6, 144 h) [%] | % viability ([1]; day 9, 216 h) [%] | % viability ([2]; day 3, 72 h) [%] | % viability ([2]; day 6, 144 h) [%] | % viability ([2]; day 9, 216 h) [%] |
| --- | --- | --- | --- | --- | --- | --- | --- | --- | --- | --- | --- | --- | --- |
| – | Nc1c(Br)cc([N+](=O)[O-])cc1Br [compound 240, ZINC000001641734] | 95.7 | 86.7 | 89 | 110 | 106 | 115 | – | – | – | – | – | – |
| – | CC(C)(C)NCCCNC(=O)c1cccc(Br)c1 [compound 31, UNC2170 trifluoroacetate] | 120 | 93.1 | 125 | 111 | 110 | 106 | – | – | – | – | – | – |
| – | CCC[C@H](NC(=O)[C@@H]1[C@H]2CCC[C@H]2CN1C(=O)[C@@H](NC(=O)[C@@H](NC(=O)c1cnccn1)C1CCCCC1)C(C)(C)C)C(=O)C(=O)NC1CC1 [compound 76, Telaprevir (VX-950)] | – | – | – | – | – | – | 12.16 | 1.882 | 0.2706 | 49.36 | 17.7 | 2.593 |
| – | Cc1ccc2nc(-c3ccc(N4C(=O)C5C6c7ccccc7C(c7ccccc76)C5C4=O)cc3)sc2c1 (stereo not shown) [compound 23, ZINC000008935041] | 41.6 | 14.8 | 4.43 | 87.4 | 48.7 | 11 | – | – | – | – | – | – |
| – | COc1cc2c(cc1-c1c(C)noc1C)ncc1[nH]c(=O)n([C@H](C)c3ccccn3)c12 [compound 78, I-BET151] | 0.356 | 0.218 | 0.24 | 14.5 | 0.804 | 0.227 | – | – | – | – | – | – |
| – | O=C(Cc1ccccc1)Nc1ccc2oc(-c3ccc4ccccc4c3)nc2c1 [compound 172, ZINC000001204199] | 114 | 101 | 78.6 | 108 | 107 | 112 | – | – | – | – | – | – |
| binds | B1 | – | – | – | – | – | – | – | – | – | – | – | – |
